Where two headings read alike, the source gives them in different places.

The results in this text go back to US20080249042A1, “All-Trans-Retinol: All-Trans-13,14-Dihydroretinol Saturase and Methods of Its Use” (UNIVERSITY OF WASHINGTON, priority 2004, published 2008).

Assay type in all cases: in vivo, mouse
Data set [1] can be described thus: Liver retinoids of Lrat-/- mice 3 h after gavage with all-trans-ROL palmitate. The settings on record: Lrat−/− (LRAT-deficient knockout), mouse, liver, oral, Lrat-/- mice, liver, 3 hr post-gavage, read-out: Level of liver retinoids 3 hr following gavage with ROL palmitate. From the text:
(§1) Metabolism of Retinoids in Vivo. All animal experiments employed procedures approved by the University of Washington and conformed to recommendations of the American Veterinary Medical Association Panel on Euthanasia and recommendations of the Association of Research for Vision and Ophthalmology. Animals were maintained on a 12-h light and 12-h dark cycle. All manipulations were done under dim red or infrared light (>560 nm). Most experiments used 6-12-week-old mice. Lrat−/− mice were genotyped as described previously. Batten, et al. J. Biol. Chem. 279:10422-10432, 2004. Animals were maintained on a control chow diet up to 1 h prior to oral gavage. The appropriate amount of all-trans-ROL palmitate, all-trans-DROL, or all-trans-RA was dissolved in vegetable oil and administered by oral gavage 3 h prior to analysis.
Analysis of Retinoids. Liver (1 g) from retinoid gavaged or naive mice was homogenized in 2 ml of 137 mM NaCl, 2.7 mM KCl, and 10 mM sodium phosphate (pH 7.4) for 30 s using a Polytron homogenizer. 10 μl of 5 M NaOH was added to 3 ml of the ethanolic extract, and the nonpolar retinoids were extracted using 5 ml of hexane. The extraction was repeated, and the organic phases were combined, dried under vacuum, resuspended in hexane, and examined by normal phase HPLC using a normal phase column (Beckman Ultrasphere Si 5μ, 4.6×250 mm). The elution condition was an isocratic solvent system of 10% ethyl acetate in hexane (v/v) for 25 min at a flow rate of 1.4 ml/min at 20° C. with detection at 325 and 290 nm for the detection of nonpolar retinoids and 13,14-dihydroretinoids, respectively. The aqueous phase was acidified with 40 μl of 12 N HCl, and polar retinoids were extracted with 5 ml of hexane. The extraction was repeated, and the organic phases of the polar retinoid extractions were combined, dried, resuspended in solvent composed of 80% CH3CN, 10 mM ammonium acetate, 1% acetic acid, and examined by reverse phase HPLC. Analysis of polar retinoids from tissues was done by reverse phase HPLC using a narrowbore, 120-Å, 5-μm, 2.1×250 mm, Denali C18 column (Grace-Vydac, Hesperia, Calif.). The solvent system was composed of buffer A, 80% methanol, 20% 36 mM ammonium acetate (pH 4.7 adjusted with acetic acid), and buffer B, 100% methanol. The HPLC elution conditions were […], 100% buffer A for 40 min, 100% buffer B for 10 min, and 10 min equilibration in buffer A. The elution profiles of RA and DRA were monitored using an online diode array detector set at 350 and 290 nm, respectively. The peaks were identified based on their UV-visible spectra and/or coelution with synthetic or commercially available standards. The measured area of absorbance was converted to picomoles based on a calibration of the HPLC columns using a known amount of all-trans-RA or all-trans-ROL (Sigma) and all-trans-DROL or all-trans-DRA (synthetic standards). The extraction efficiency was monitored by spiking a tissue sample with [^3H]RA (PerkinElmer Life Sciences) and monitoring the radioactivity recovered from the HPLC column. In the case of liver samples the extraction efficiency was 95% or better. Mass spectrometry analyses of synthesized retinoids and of natural retinoids purified by HPLC were performed using a Kratos profile HV-3 direct probe mass spectrometer.

Data set [2] in a line: Liver retinoids of Lrat-/- mice 3 h after gavage with all-trans-DROL. Conditions: 3 h post-gavage.
Text: as §1
(§2) Analysis of Retinoids. Liver (1 g) from retinoid gavaged or naive mice was homogenized in 2 ml of 137 mM NaCl, 2.7 mM KCl, and 10 mM sodium phosphate (pH 7.4) for 30 s using a Polytron homogenizer. 10 μl of 5 M NaOH was added to 3 ml of the ethanolic extract, and the nonpolar retinoids were extracted using 5 ml of hexane. The extraction was repeated, and the organic phases were combined, dried under vacuum, resuspended in hexane, and examined by normal phase HPLC using a normal phase column (Beckman Ultrasphere Si 5μ, 4.6×250 mm). […] The HPLC elution conditions were […], 100% buffer A for 40 min, 100% buffer B for 10 min, and 10 min equilibration in buffer A. The elution profiles of RA and DRA were monitored using an online diode array detector set at 350 and 290 nm, respectively. […] The measured area of absorbance was converted to picomoles based on a calibration of the HPLC columns using a known amount of all-trans-RA or all-trans-ROL (Sigma) and all-trans-DROL or all-trans-DRA (synthetic standards). The extraction efficiency was monitored by spiking a tissue sample with [^3H]RA (PerkinElmer Life Sciences) and monitoring the radioactivity recovered from the HPLC column. […]

A short description of data set [3]: Liver retinoids of Lrat-/- mice 3 h after gavage with all-trans-RA. The settings on record: 3 h post-gavage.
Text: as §1, §2

Turning to `CC1=C(/C=C/C(C)=C/C=C/C(C)CO)C(C)(C)CCC1` (single isomer, unassigned) [C19-ROL, (3E,5E,7E)-2,6-dimethyl-8-(2,6,6-trimethylcyclohex-1-enyl)octa-3,5,7-trien-1-ol], the concentration at 3 h in data set [1] (10^5 IU/kg body weight all-trans-ROL palmitate) was found to be 200 ± 8 nM; in data set [1] (10^6 IU/kg body weight all-trans-ROL palmitate), 1800 nM. Further, in data set [2], the “Level in liver after gavage with all-trans-DROL” value was “low levels”. The “Formation in liver after gavage with all-trans-RA” value in data set [3] is reported as “no evidence”.
As to `CC(C=CC1=C(C)C(=O)CCC1(C)C)=CC=CC(C)CC(=O)O` (stereo not drawn) [all-trans-4-oxo-DRA], the “Level in liver after gavage with all-trans-DROL” value in data set [2] is on record as “significant levels”. In data set [3], the “Formation in liver after gavage with all-trans-RA” value is “no evidence”.
